According to PubChem BioAssay (NCI):
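In this assay, cells in 96-well plates receive the compound at five concentrations for 48 hours. Endpoints are linearly interpolated between the surrounding concentrations. GI50 marks 50% less growth. The concentration for full growth arrest is given as TGI.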

Key:
Test in all cases: inhibition of tumour cell growth, NCI panel, 48 h
[1] = system: CCRF-CEM leukemia
[2] = system: RPMI-8226 leukemia
[3] = system: NCI-H226 lung
[4] = system: MALME-3M melanoma
[5] = system: A498 renal
[6] = system: HOP-62 NSCLC
[7] = system: 786-0 renal
[8] = system: SNB-19 CNS
[9] = system: SK-MEL-5 melanoma
[10] = system: HS 578T breast
[11] = system: SK-MEL-28 melanoma
[12] = system: BT-549 breast
[13] = system: U251 CNS
[14] = system: HT29 colon
[15] = system: HCT-15 colon
[16] = system: OVCAR-4 ovarian
[17] = system: T-47D breast
[18] = system: K-562 leukemia
[19] = system: SR leukemia
[20] = system: MCF7 breast
[21] = system: M14 melanoma
[22] = system: CAKI-1 renal
[23] = system: HCT-116 colon
[24] = system: OVCAR-8 ovarian
[25] = system: MDA-MB-231 breast
[26] = system: SK-OV-3 ovarian
[27] = system: EKVX NSCLC
[28] = system: HL-60(TB) leukemia
[29] = system: UO-31 renal

With `O=C(Nc1ccc(Cl)c(C(F)(F)F)c1)Nc1ccc2c(ccn2C(=O)c2cccc(F)c2)c1` the GI50 [1] was 3.78 µM, the TGI [1] was greater than 100 µM and the GI50 [2] was 2.78 µM. For the same compound, the TGI [2] was 10.9 µM, the GI50 [3] was 2.46 µM and the TGI [3] was 7.5 µM. For the same compound, the GI50 [4] was 1.92 µM, the TGI [4] was 5.87 µM and the GI50 [5] was 2.67 µM. The TGI [5] was 9.86 µM, the GI50 [6] was 2.45 µM and the TGI [6] was 7.81 µM. For the same compound, the GI50 [7] was 2.63 µM, the TGI [7] was 11.1 µM and the GI50 [8] was 3.18 µM. For the same compound, the TGI [8] was 14.1 µM, the GI50 [9] was 2.4 µM and the TGI [9] was 6.64 µM. It also gave a GI50 [10] of 2.8 µM, a TGI [10] of 8.55 µM and a GI50 [11] of 3.37 µM. For the same compound, the TGI [11] was 19.6 µM, the GI50 [12] was 2.61 µM and the TGI [12] was 8.98 µM. It also gave a GI50 [13] of 3.01 µM, a TGI [13] of 11.4 µM and a GI50 [14] of 3.16 µM. For the same compound, the TGI [14] was 50.8 µM, the GI50 [15] was 2.37 µM and the TGI [15] was 9.7 µM. It also gave a GI50 [16] of 2.98 µM, a TGI [16] greater than 100 µM and a GI50 [17] of 2.53 µM. The TGI [17] was 9.11 µM, the GI50 [18] was 3.15 µM and the TGI [18] was 16.4 µM. The GI50 [19] was 2.13 µM, the TGI [19] was 9.12 µM and the GI50 [20] was 2.12 µM. The TGI [20] was 7.66 µM, the GI50 [21] was 3.22 µM and the TGI [21] was 16.8 µM. It also gave a GI50 [22] of 2.16 µM, a TGI [22] of 9.07 µM and a GI50 [23] of 3 µM. It also gave a TGI [23] of 10.6 µM, a GI50 [24] of 3.15 µM and a TGI [24] of 17.9 µM. It also gave a GI50 [25] of 2.91 µM, a TGI [25] of 11 µM and a GI50 [26] of 2.79 µM. It also gave a TGI [26] of 8.99 µM, a GI50 [27] of 2.2 µM and a TGI [27] of 7.8 µM. For the same compound, the GI50 [28] was 2.33 µM, the TGI [28] was 7.82 µM and the GI50 [29] was 1.7 µM.
